The values that follow come from patent publication US20200277649A1, “BROAD SPECTRUM DETECTION OF DNA DAMAGE BY REPAIR ASSISTED DAMAGE DETECTION (RADD)” (University of South Alabama, priority 2017, published 2020).

For this test, the system named is CHO-K1 cells. The test can be described thus: RADD detection of BrdU incorporation into genomic DNA. In kind it is cell-based, Chinese hamster. The following applies: CHO-K1 cells sensitized 24 h, versus basal levels, FIG. 5A.

As for `O=c1[nH]c(=O)n([C@H]2C[C@H](O)[C@@H](CO)O2)cc1Br` [BrdU, bromodeoxyuridine], the “RADD mean fluorescence intensity of the nucleus (DNA lesions)” value is reported as “increased levels of DNA lesions”.
